According to patent US20090297508A1, “Compositions and methods for treating hemostasis disorders associated with clec-2 signal transduction” (UNIVERSITY OF YAMANASHI, priority 2005, published 2009):

Key:
CLEC-2 [1] = test: CLEC-2 tyrosine phosphorylation in human platelets (immunoprecipitation and western blotting); assay type: cell-based; conditions: for block of rhodocytin-induced tyrosine phosphorylation of CLEC-2: 30 μM inhibitor pretreatment, 50 nM rhodocytin; for tyrosine phosphorylation of CLEC-2: 50 μg/ml collagen or 100 μM SFLLRN, time course of up to 5 min
Procedure: (§1) Washed human platelets (1×10^9/ml) pretreated with 1 mM GRGDS (SEQ ID NO: 5) peptide or washed murine platelets (2×10^8/ml) pretreated with 10 μM lotrafiban to inhibit platelet aggregation were stimulated with 50 nM rhodocytin, 100 μM SFLLRN (SEQ ID NO: 6), or 50 μg/ml of collagen. […] Reactions were terminated by addition of 2× ice-cold lysis buffer. Platelet lysates were precleared and detergent-insoluble debris was clarified as described 17. A small aliquot was dissolved with SDS sample buffer for detection of total tyrosine phosphorylation. Antibodies against CLEC-2, PLCγ2, Syk, Btk, SLP-76, LAT, Vav1, or Vav3 were added to the resultant supernatant and incubated overnight. Where indicated, 10 μg of CLEC-2 YXXL-containing peptide plus avidin-Sepharose or GST-fusion protein-associated glutathione Sepharose were incubated with the lysates. […] The samples were lysed with 2× lysis buffer before and 5 min after stimulation. […] After removing insoluble debris by centrifugation, CLEC-2 was immunoprecipitated by addition of protein G. Precipitated proteins or whole cell lysates were separated by SDS-PAGE, electrotransferred, and western blotted by the indicated antibodies.

[2] = test system: Syk, Btk, LAT, SLP-76, Vav1, Vav3, PLCγ2; test: Tyrosine phosphorylation of signaling proteins of the GPVI cascade in platelets; assay type: cell-based, human; conditions: PP2 present; not shown
platelets = test: Whole cell tyrosine phosphorylation and functional responses of platelets stimulated by rhodocytin; assay type: cell-based; conditions: data not shown
CLEC-2 [3] = test: Precipitation of CLEC-2 from platelet lysates by GST fusion protein of tandem Syk SH2 domains; assay type: cell-based, human; conditions: 30 μM PP2 pretreatment, 50 nM rhodocytin
Procedure: (A) Washed murine platelets were stimulated with 50 nM rhodocytin for the indicated times. Whole cell lysates or immunoprecipitates with antibodies against PLCγ2, Vav1, or Vav3 were separated by SDS-PAGE and western blotted with the indicated antibodies. (B) Control or Syk-deficient platelets were stimulated with 30 nM rhodocytin and platelet aggregation was monitored using an aggregometer. (C) (i)(ii) Washed human platelets, pretreated with or without 30 μM PP2, were stimulated with 50 nM rhodocytin or 10 μg/ml of convulxin for the indicated times. Reactions were terminated by addition of an equal volume of 2× lysis buffer. […] The resultant supernatant was incubated with 40 μl of glutathione beads associated with GST fusion protein containing tandem Syk SH2 domains. Precipitated proteins were separated by SDS-PAGE and western blotted with an antibody to CLEC-2. (iii) CLEC-2 associated with 10 μg of CLEC-2 phospho-YXXL-containing peptide plus avidin-sepharose was detected by CLEC-2 antibody. The data are representative of 2-5 experiments.

Syk = Syk (Homo sapiens, UniProt P43405); conditions: 10 μg peptide plus avidin-Sepharose, platelet lysates
Procedure: as §1

CC(C)(C)n1nc(-c2ccc(Cl)cc2)c2c(N)ncnc21 [PP2]
block of rhodocytin-induced tyrosine phosphorylation of CLEC-2 (CLEC-2 [1]): block tyrosine phosphorylation of both the 32 and 40 kDa forms of CLEC-2 | effect on rhodocytin-induced tyrosine phosphorylation of Syk, Btk, LAT, SLP-76, Vav1, Vav3, PLCγ2 [2]: abolished | block of tyrosine phosphorylation in whole cells and functional responses to rhodocytin (platelets): block tyrosine phosphorylation in whole cells and all functional responses | effect on precipitation of CLEC-2 by Syk fusion protein from rhodocytin-stimulated platelets (CLEC-2 [3]): abolished

Biotin-6-aminohexanoic acid (Ahx)-MQDEDGYITLNIK-OH [non-phosphorylated peptide]
interaction of Syk with CLEC-2 YXXL peptide (Syk): no interaction

Nc1ncnc2c1cnn2-c1ccccc1 [PP3]
block of rhodocytin-induced tyrosine phosphorylation of CLEC-2 (CLEC-2 [1]): not

Cc1ccc(-c2nn(C(C)(C)C)c3ncnc(N)c23)cc1 [PP1]
block of tyrosine phosphorylation in whole cells and functional responses to rhodocytin (platelets): block tyrosine phosphorylation in whole cells and all functional responses

Ser-Phe-Leu-Leu-Arg-Asn (SFLLRN)
tyrosine phosphorylation of CLEC-2 (CLEC-2 [1]): does not undergo tyrosine phosphorylation

collagen
tyrosine phosphorylation of CLEC-2 (CLEC-2 [1]): does not undergo tyrosine phosphorylation

Biotin-6-aminohexanoic acid (Ahx)-MQDEDGY(PO3H2)ITLNIK-OH
interaction of Syk with CLEC-2 YXXL peptide (Syk): Syk could be precipitated
